US20130190407A1, “CALCIUM RECEPTOR-ACTIVE MOLECULES” (NPS Pharmaceuticals, Inc., priority 1991, published 2013)
Structures can show the parent of a compound that is named as a salt. Where two headings read alike, the source gives them in different places.

How the values were obtained:
[1] = test system: Sprague-Dawley rats; test: Serum/plasma Ca2+, PTH and calcitonin in rats in vivo; design: species or system rat; details: i.p.
Method: Compounds shown to activate the bovine parathyroid cell calcium receptor in vitro were tested for hypocalcemic activity in vivo. Male Sprague-Dawley rats (200 g) were maintained on a low calcium diet for one week prior to receiving test substance or vehicle as control. Blood was collected from the tail vein three hours after the intra-peritoneal administration of NPS 467. […] Serum total calcium, albumin and phosphate were measured by techniques well known in the art.
Rats (male, Sprague-Dawley, 250-300 g) were fed standard rat chow and fasted overnight prior to the experiment. NPS R-467 was suspended in corn oil, and administered as a single oral dose through a gavage needle. Three hours later a sample of blood was taken from the tail vein and assessed for ionized Ca^2+ levels.

[2] = target: T1, parathyroid cell calcium receptor (Bos taurus, UniProt P35384); test: Mobilization of intracellular Ca2+ ([Ca2+]i, fura-2) in bovine parathyroid cells; assay type: cell-based; design: Parathyroid glands were obtained from freshly slaughtered calves (12-15 weeks old); endogenous in cells; host or cells: dissociated primary bovine (calf) parathyroid cells; details: for compounds with any effect on basal [Ca2+]i or increases evoked by extracellular Ca2+: tested at 1 μM; for influx of extracellular Ca2+ / potentiation of Ca2+ mobilization / transient increases in [Ca2+]i: verapamil, D-600, TMB-8 100 μM, NPS 384 300 μM
T1 sequence (P35384 20-1085): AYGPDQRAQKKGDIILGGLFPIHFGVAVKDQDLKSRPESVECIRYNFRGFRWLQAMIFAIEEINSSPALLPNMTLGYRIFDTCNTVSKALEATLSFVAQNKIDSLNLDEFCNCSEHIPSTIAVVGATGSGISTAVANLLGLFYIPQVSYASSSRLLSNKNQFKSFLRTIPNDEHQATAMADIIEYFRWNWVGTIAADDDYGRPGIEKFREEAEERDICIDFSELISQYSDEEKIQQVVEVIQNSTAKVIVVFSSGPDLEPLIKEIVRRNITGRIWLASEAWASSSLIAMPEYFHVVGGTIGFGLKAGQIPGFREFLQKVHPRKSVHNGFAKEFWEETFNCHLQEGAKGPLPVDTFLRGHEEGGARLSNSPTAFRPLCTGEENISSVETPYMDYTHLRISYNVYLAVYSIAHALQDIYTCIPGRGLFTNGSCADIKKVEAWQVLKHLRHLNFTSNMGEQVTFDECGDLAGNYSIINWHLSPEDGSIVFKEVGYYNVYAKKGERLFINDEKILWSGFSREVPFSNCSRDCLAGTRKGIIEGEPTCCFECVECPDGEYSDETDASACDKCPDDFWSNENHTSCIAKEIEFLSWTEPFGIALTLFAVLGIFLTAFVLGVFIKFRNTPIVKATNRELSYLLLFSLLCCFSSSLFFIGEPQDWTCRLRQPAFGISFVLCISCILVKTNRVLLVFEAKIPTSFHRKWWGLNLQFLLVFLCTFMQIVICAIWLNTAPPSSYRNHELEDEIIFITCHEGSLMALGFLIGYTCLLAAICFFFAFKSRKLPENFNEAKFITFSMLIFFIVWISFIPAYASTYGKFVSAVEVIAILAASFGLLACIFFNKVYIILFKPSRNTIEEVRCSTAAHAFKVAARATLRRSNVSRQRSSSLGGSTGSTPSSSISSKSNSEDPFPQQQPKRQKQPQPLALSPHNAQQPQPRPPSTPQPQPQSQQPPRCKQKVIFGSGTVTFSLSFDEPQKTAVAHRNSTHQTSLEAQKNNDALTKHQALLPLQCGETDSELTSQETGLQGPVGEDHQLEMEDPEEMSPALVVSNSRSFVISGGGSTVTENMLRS
Method: This section describes procedures used to obtain and treat parathyroid cells from calves and humans. […] Human parathyroid glands, were obtained from patients undergoing surgical removal of parathyroid tissue for primary or uremic hyperparathyroidism (uremic HPT), and were treated similarly to bovine tissue.
Glands were trimmed of excess fat and connective tissue and then minced with fine scissors into cubes approximately 2-3 mm on a side. Dissociated parathyroid cells were prepared by collagenase digestion and then purified by centrifugation in Percoll buffer. The resultant parathyroid cell preparation was essentially devoid of red blood cells, adipocytes, and capillary tissue as assessed by phase contrast microscopy and Sudan black B staining. Dissociated and purified parathyroid cells were present as small clusters containing 5 to 20 cells.
The cells were then pelleted, resuspended in the same buffer, but lacking the ester, and incubated a further 15 minutes at 37° C. The cells were subsequently washed twice with PCB containing 0.5 mM CaCl2 and 0.5% BSA and maintained at room temperature (about 20° C.) Immediately before use, the cells were diluted five-fold with prewarmed 0.5 mM CaCl2-PCB to obtain a final BSA concentration of 0.1%. The concentration of cells in the cuvette used for fluorescence recording was 1−2×10^6/ml.
The fluorescence of indicator-loaded cells was measured at 37° C. in a spectrofluorimeter (Biomedical Instrumentation Group, University of Pennsylvania, Philadelphia, Pa.) equipped with a thermostated cuvette holder and magnetic stirrer using excitation and emission wavelengths of 340 and 510 nm, respectively. […] Leakage of dye is dependent on temperature and most occurs within the first 2 minutes after warming the cells in the cuvette. Dye leakage increases only very slowly thereafter. To correct the calibration for dye leakage, cells were placed in the cuvette and stirred at 37° C. for 2-3 minutes. The cell suspension was then removed, the cells pelleted, and the supernatant returned to a clean cuvette. […] This estimate was subtracted from the apparent Fmin.

[3] = target: bovine parathyroid cell calcium receptor (bovine) (UniProt P35384); test: cell-based or functional assay
[4] = EC50 for mobilization of intracellular Ca2+, bovine parathyroid cells
[5] = Table 8 (arylalkylamine calcimimetics), parathyroid cell calcium receptor in vitro, read-out: EC50
[6] = 100 to 1000 μM, buffer containing 2 mM CaCl2

With `COc1cccc(C(C)NCCCc2ccccc2)c1` (racemic) [NPS 467] the “time course of hypocalcemic effect” value [1] was “maximal within three hours”, the “serum or whole blood Ca2+” value ([1]; three hours, low calcium diet) was “dose-dependent reduction in serum or whole blood Ca^2+” and the “circulating levels of PTH” value ([1]; preliminary studies) was “dose-dependent reduction in circulating levels of PTH”.
For `CC1=C(C(=O)OC(C)C)[C@H](c2cccc3nonc23)C([N+](=O)[O-])=C(C)N1` [(+) 202-791], the “compounds with any effect on basal [Ca2+]i or increases evoked by extracellular Ca2+” value [2] was “None”.
With `CC1=C(C(=O)OC(C)C)[C@@H](c2cccc3nonc23)C([N+](=O)[O-])=C(C)N1` [(−) 202-791] the “compounds with any effect on basal [Ca2+]i or increases evoked by extracellular Ca2+” value [2] was “None”.
With `N=C(N)NCCC[C@H](N)C(=O)NCCCNCCCNCCCCCNC(=O)[C@H](CC(N)=O)NC(=O)Cc1ccc(O)cc1O` [Argiotoxin-636, argiotoxin 636] the “effect on cytosolic Ca2+ responses to subsequent extracellular Ca2+” value ([2]; 400 μM) was “did potentiate cytosolic Ca^2+ responses”, the “increases in [Ca2+]i” value ([2]; 400 μM) was “did not elicit increases in [Ca^2+]” and the “effect on [Ca2+]i” value ([2]; tested at 100 to 300 μM) was “no effect”.
In the case of `N=C(N)NCCC[C@H](N)C(=O)NCCCNCCCNCCCCCNC(=O)[C@H](CC(N)=O)NC(=O)Cc1c[nH]c2cccc(O)c12` [Argiotoxin-659, argiotoxin 659], the “effect on [Ca2+]i” value ([2]; tested at 100 to 300 μM) is reported as “evoked transient increases in [Ca^2+]i”.
`COC(=O)C1=C(C)NC(C)=C([N+](=O)[O-])C1c1ccccc1C(F)(F)F` (stereo not drawn) [BAY K 8644] was tested, and the “compounds with any effect on basal [Ca2+]i or increases evoked by extracellular Ca2+” value [2] was “None”.
With `NCCCCCN` [Cadaverine, cadaverine] the “effect on mobilization of intracellular Ca2+” value (“effect on mobilization” for short) ([2]; tested at 2 mM) was “inactive”.
Compound `CSc1cccc(C(C)NCCCc2ccccc2)c1` (stereo not drawn) [Compound 8J, N-(3-Phenylpropyl)-1-(3-thiomethylphenyl)ethylamine hydrochloride] has an EC50 [2, 4] of under 5000 nM and an EC50 [2, 5] of 780 nM.
Compound `CC(C)c1ccc(CN[C@H](C)c2cccc3ccccc23)cc1` [Compound 11X, (R)—N-(4-Isopropylbenzyl)-1-(1-naphthyl)ethylamine hydrochloride] has an EC50 [2, 4] of under 5000 nM.
`C[C@@H](NCCCc1ccccc1Cl)c1cccc2ccccc12` [Compound 12Z, (R)—N-3-(2-Chlorophenyl)-1-propyl-1-(1-naphthyl)ethylamine hydrochloride] gave an EC50 [2, 4] of under 5000 nM.
Compound `COc1ccc([C@@H](C)N[C@H](C)c2cccc3ccccc23)cc1` [Compound 14U, (R,R)—N-(1-(4-Methoxyphenyl)ethyl)-1-(1-naphthyl)ethylamine hydrochloride] has an EC50 [2, 4] of under 5000 nM and an EC50 [2, 5] of 130 nM.
Compound `COc1ccc(CN[C@H](C)c2cccc3ccccc23)cc1Cl` [Compound 17M, (R)—N-(3-Chloro-4-methoxybenzyl)-1-(1-naphthyl)ethylamine hydrochloride] has an EC50 [2, 4] of under 5000 nM and an EC50 [2, 5] of 150 nM.
Work on `COc1ccc([C@@H](C)N[C@H](C)c2cccc3ccccc23)cc1C` [Compound 17P, (R,R)—N-(1-(4-Methoxy-3-methylphenyl)ethyl)-1-(1-naphthyl)ethylamine hydrochloride] yielded an EC50 [2, 4] of under 5000 nM and an EC50 [2, 5] of 40 nM.
`COc1ccc(CCCN[C@H](C)c2cccc(OC)c2)cc1` [Compound 20I] was tested, and the EC50 [2, 5] was under 1000 nM.
`COc1ccc(CCN(C)CCCC(C#N)(c2cc(OC)c(OC)c(OC)c2)C(C)C)cc1OC` [Compound D-600] was tested, and the “influx of extracellular Ca2+” value [2] was “blocked the influx of extracellular Ca^2+” and the “potentiation of Ca2+ mobilization / transient increases in [Ca2+]i” value [2] was “potentiated the mobilization of intracellular Ca^2+”.
With `C1CNCCNCCNCCNCCNCCN1` [Hexacyclen, 1,4,7,10,13,16-hexaaza-cyclooctadecane] the “potency relative to NPS 383” value [2] was 7 fold and the “potency relative to pentaethylenehexamine” value [2] was 25 fold.
For `CCC[C@@H]1C[C@@H](C(=O)N[C@@H]([C@H]2O[C@H](SC)[C@H](O)[C@@H](O)[C@H]2O)[C@@H](C)O)N(C)C1` [Lincomycin, lincomycin], the “effect on mobilization” value ([2]; tested at 500 μM) was “without effect”.
`NCCCCCCCCCCCCNC(=O)Cc1ccc(O)cc1O` [NPS 021] was tested, and the “increase in [Ca2+]i evoked by extracellular Ca2+” value ([2]; around 500 μM) was “abolished” and the “change in [Ca2+]i by itself” value ([2]; low [Ca2+] 0.5 mM) was “does not by itself cause any change in [Ca^2+]i”.
With `COc1ccc(CC(=O)NCCCCCCCCCCCCN)cc1OC` [NPS 384] the “increase in [Ca2+]i” value ([2]; 300 μM) was “did not evoke an increase in [Ca^2+]i”, the “effect on [Ca2+]i” value [2, 6] was “prompt fall in [Ca^2+]i” and the “influx of extracellular Ca2+” value [2] was “blocked influx of extracellular Ca^2+”. For the same compound, the “potentiation of Ca2+ mobilization / transient increases in [Ca2+]i” value [2] was “fails to do so”.
In the case of `NCCCCCCCCCCCCN` [NPS 472, 1,12-diaminododecane], the “effect on [Ca2+]i” value [2, 6] is reported as “prompt fall in [Ca^2+]i”.
For `NCCCCN` [Putrescine], the “effect on mobilization” value ([2]; tested at 2 mM) was “inactive”.
For `CCN(CC)CCCCCCCCOC(=O)c1cc(OC)c(OC)c(OC)c1` [TMB-8], the “influx of extracellular Ca2+” value [2] was “blocked the influx of extracellular Ca^2+”, the “potentiation of Ca2+ mobilization / transient increases in [Ca2+]i” value [2] was “potentiated the mobilization of intracellular Ca^2+” and the “potentiation of Ca2+ mobilization / transient increases in [Ca2+]i” value ([2]; listed as TNB-8) was “potentiated transient increases in [Ca^2+]i”.
With `COc1ccc([C@@H]2Sc3ccccc3N(CCN(C)C)C(=O)[C@@H]2OC(C)=O)cc1` [diltiazem] the “activity like verapamil and D-600” value ([2]; 100 μM) was “effective”.
In the case of `N[C@@H](CCC(=O)O)C(=O)O` [glutamate], the “response to mGluR agonists” value ([2]; bovine parathyroid cells or Xenopus oocytes expressing calcium receptors) is reported as “did not respond”.
In the case of `COc1cccc(C(C)NCCC(c2ccccc2)c2ccccc2)c1` (stereo not drawn) [meta-Methoxyfendiline], the “potency in mobilization of intracellular Ca2+” value ([2]; racemic mixture) is reported as “as potent as NPS 467”.
For Philanthotoxin-433, the “effect on mobilization” value ([2]; tested at 500 μM) was “without effect”.
For polyArg (100) (peptide), the EC50 for the mobilization of intracellular Ca^2+ (fura-2, bovine parathyroid cells) [3] was 4 nM.
polyArgTyr (22) (peptide) was tested, and the EC50 for mobilizing intracellular Ca^2+ [3] was under 100 nM and the EC50 for the mobilization of intracellular Ca^2+ (fura-2, bovine parathyroid cells) [3] was 200 nM.
polyLys (3.8) (peptide) showed an EC50 for the mobilization of intracellular Ca^2+ (fura-2, bovine parathyroid cells) [3] of 3000 nM.
polyLys (14) (peptide) was tested, and the EC50 for the mobilization of intracellular Ca^2+ (fura-2, bovine parathyroid cells) [3] was 1000 nM.
polyLys (27) (peptide) gave an EC50 for the mobilization of intracellular Ca^2+ (fura-2, bovine parathyroid cells) [3] of 30 nM.
In the case of protamine (peptide), the cyclic AMP (% of control), isoproterenol-stimulated, 2 ug/ml protamine, +PTx [3] is reported as 89 % of control, the cyclic AMP (% of control), isoproterenol-stimulated, 2 ug/ml protamine, control [3] is reported as 20 % of control and the potency in mobilizing intracellular Ca^2+ in parathyroid cells (EC50) [3] is reported as 40 nM.
